The target in the experiment is T1, acyl-CoA:cholesterol acyltransferase (ACAT) (Oryctolagus cuniculus, UniProt G1SFD9).
T1 construct: a tissue preparation containing rabbit intestinal microsomes; from tissue; host or cells: rabbit intestinal microsomes
T1 sequence (G1SFD9 1-524): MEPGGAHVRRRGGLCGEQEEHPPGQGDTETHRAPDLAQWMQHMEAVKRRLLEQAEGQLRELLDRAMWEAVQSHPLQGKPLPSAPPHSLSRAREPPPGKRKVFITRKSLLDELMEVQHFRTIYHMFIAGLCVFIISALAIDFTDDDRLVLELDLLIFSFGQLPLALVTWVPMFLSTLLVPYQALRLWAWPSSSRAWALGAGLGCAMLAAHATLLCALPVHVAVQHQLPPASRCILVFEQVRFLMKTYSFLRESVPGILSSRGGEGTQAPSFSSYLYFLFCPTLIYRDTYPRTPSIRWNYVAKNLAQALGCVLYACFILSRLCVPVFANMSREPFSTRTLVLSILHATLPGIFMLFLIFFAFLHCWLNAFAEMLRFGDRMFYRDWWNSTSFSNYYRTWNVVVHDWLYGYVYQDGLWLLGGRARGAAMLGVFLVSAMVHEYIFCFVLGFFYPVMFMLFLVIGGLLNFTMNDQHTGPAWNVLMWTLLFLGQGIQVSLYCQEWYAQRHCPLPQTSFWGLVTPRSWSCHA
Put plainly: In vitro inhibition of ACAT: radio-labeled cholesterol oleate formed from radio-labeled oleic acid in rabbit intestinal microsomes. Type of experiment: biochemical. Here is the method: The ability of representative compounds of the present invention to inhibit ACAT was measured using an in vitro test more fully described in Field, F. J. and Salone, R. G., Biochemica et Biophysica 712: 557-570 (1982). The test assesses the ability of a test compound to inhibit the acylation of cholesterol by oleic acid by measuring the amount of radio-labeled cholesterol oleate formed from radio-labeled oleic acid in a tissue preparation containing rabbit intestinal microsomes.
The data appear in Table 1 where they are expressed as IC50 values; i.e. the concentration of test compound required to inhibit 50% […] of the enzyme.

For orientation: IC50 means the concentration at which inhibition is half-maximal. In turn, `CCCCCCCC/C=C\CCCCCCCC(=O)Nc1c(OC)ncnc1OC` [(Z)-N-(4,6-dimethoxy-5-pyrimidinyl)-9-octadecenamide] registered a 50% inhibitory concentration (IC50) of 200 nM.
In the case of `CCCCCCCC/C=C\CCCCCCCC(=O)Nc1c(OCC)ncnc1OCC` [(Z)-N-(4,6-diethoxy-5-pyrimidinyl)-9-octadecenamide] it was 530 nM.

Source of the values: patent publication US4722927A, “Pyrimidine amides of oleic or linoleic acid, composition containing them and their use as inhibitors of acyl-CoA cholesterol acyltransferase” (Warner-Lambert Company, priority 1986, dated 1988).
